How the values were obtained:
GP2D cells = experiment: GP2D proliferation assay (120 h) (colorectal cancer, G12D); type: cell-based
Method: GP2D Proliferation Assay (120 h) (Colorectal Cancer, G12D)
GP2D cells (ATCC No. CRL-5807) are dispensed into white 384-well plates, flat and white bottom (Perkin Elmer, 6007680) at a density of 500 cells per well in 40 μl DMEM (Sigma, D6429)+1×GlutaMAX (Gibco, 35050038)+10% FCS (fetal calf serum). […] Compounds (10 mM stock in DMSO) are added at logarithmic dose series using the HP Digital Dispenser D300 (Tecan), including DMSO controls and normalizing for added DMSO. For the TO time point measurement, untreated cells are analyzed at the time of compound addition. Plates are incubated for 120 h, and cell viability is measured using CellTiter-Glo luminescent cell viability reagent (Promega product code G7570). Viability (stated as percent of control) is defined as relative luminescence units RLU of each well divided by the RLU of cells in DMSO controls. IC50 values are determined from viability measurements by non-linear regression using a four parameter model.

KRAS (WT)::SOS1 = KRAS (WT)::SOS1 (Homo sapiens (Human), UniProt P01116, C118S); experiment: KRAS::SOS1 AlphaScreen binding assay, KRAS WT
Sequence of KRAS (WT)::SOS1 (P01116 other isoform, or with tags, fused parts or gaps C118S): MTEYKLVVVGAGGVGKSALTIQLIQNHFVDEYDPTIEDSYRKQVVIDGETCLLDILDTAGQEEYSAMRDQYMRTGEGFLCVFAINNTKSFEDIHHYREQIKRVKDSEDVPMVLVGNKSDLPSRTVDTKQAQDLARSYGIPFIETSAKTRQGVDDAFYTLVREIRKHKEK
Text: (§1) This assay can be used to examine the potency with which compounds according to the invention binding to (mutated) KRAS inhibit the protein-protein interaction between SOS1 and (mutated) KRAS e.g., KRAS WT, KRAS G12C, KRAS G12D, KRAS G12V, KRAS G13D. […] Low IC50 values in this assay setting are indicative of strong inhibition of protein-protein interaction between SOS1 and KRAS:
(§2) These assays measure the inhibitory effect of compounds on KRAS mutant protein-protein interactions using the Alpha Screen technology by Perkin Elmer.
(§3) The following (mutant) enzyme forms of KRAS and interacting proteins are used in these assays at the given concentrations: • KRAS (G12D) 1-169, N-terminal 6His-tag, C-terminal avi-tag (Xtal BioStructures, Inc.); final assay concentration 10 nM and SOS1 564-1049, N-terminal 229 GST-tag, TEV cleavage site (Viva Biotech Ltd); final assay concentration 5 nM; • KRAS (G12C) 1-169, N-terminal 6His-tag for purification, cleaved off, C-terminal avi-tag, biotinylated, mutations: C51S, C80L, C118S (in house); final assay concentration 7.5 nM and SOS1 564-1049, N-terminal 229 GST-tag, TEV cleavage site (Viva Biotech Ltd); final assay concentration 5 nM; • KRAS (G12V) 1-169, N-terminal 6His-tag for purification, cleaved off, C-terminal avi-tag, biotinylated, TEV cleavage site, mutation: C118S, GDP loaded (in house); final assay concentration 10 nM and SOS1 564-1049, N-terminal 229 GST-tag, TEV cleavage site (Viva Biotech Ltd); final assay concentration 10 nM; • KRAS (G13D) 1-169, N-terminal 6His-tag for purification, cleaved off, C-terminal avi-tag, biotinylated, TEV cleavage site, mutation: C118S, GDP loaded (in house); final assay concentration 10 nM and SOS1 564-1049, N-terminal 229 GST-tag, TEV cleavage site (Viva Biotech Ltd); final assay concentration 10 nM; • KRAS (WT) 1-169, N-terminal 6His-tag for purification, cleaved off, C-terminal avi-tag, biotinylated, TEV cleavage site, mutation: C118S, GDP loaded (in house); final assay concentration 10 nM and SOS1 564-1049, N-terminal 229 GST-tag, TEV cleavage site (Viva Biotech Ltd); final assay concentration 10 nM.
(§4) Test compounds dissolved in DMSO are dispensed onto assay plates (Proxiplate 384 PLUS, white, PerkinElmer; 6008289) using an Access Labcyte Workstation with the Labcyte Echo 55×. For the chosen highest assay concentration of 100 μM, 150 nL of compound solution are transferred from a 10 mM DMSO compound stock solution. A series of eleven fivefold dilutions per compound are transferred to the assay plate, compound dilutions are tested in duplicates. DMSO are added as backfill to a total volume of 150 nL.
(§5) The assays run on a fully automated robotic system in a darkened room below 100 Lux. To 150 nl of compound dilution 10 μl of a mix including KRAS mutant protein, SOS1 (final assay concentrations see above) and GDP nucleotide (Sigma G7127; final assay concentration 10 μM) in assay buffer (1×PBS, 0.1% BSA, 0.05% Tween 20) are added into columns 1-24.
(§6) After 30 minutes incubation time 5 μl of Alpha Screen bead mix in assay buffer are added into columns 1-23. Bead mix consists of AlphaLISA Glutathione Acceptor Beads (PerkinElmer, Cat No AL109) and AlphaScreen Streptavidin Donor Beads (PerkinElmer Cat No 6760002) in assay buffer at a final assay concentration of 10 μg/ml each.
(§7) Plates are kept at room temperature in a darkened incubator. After an additional 60 minutes incubation time the signal is measured in a PerkinElmer Envision HTS Multilabel Reader using the AlphaScreen specs from PerkinElmer.
(§8) Each plate contains up to 16 wells of a negative control depending on the dilution procedure (platewise or serial) (DMSO instead of test compound; with KRAS mutant::SOS1 GDP mix and bead mix; column 23) and 16 wells of a positive control (DMSO instead of test compound; with KRAS mutant::SOS1 GDP mix w/o bead mix; column 24).
(§9) As internal control known inhibitors of KRAS mutant::SOS1 interaction can be measured on each compound plate. […]

KRAS (G12V)::SOS1 = KRAS (G12V)::SOS1 (Homo sapiens (Human), UniProt P01116, C118S/G12V); experiment: KRAS::SOS1 AlphaScreen binding assay, KRAS G12V
Sequence of KRAS (G12V)::SOS1 (P01116 other isoform, or with tags, fused parts or gaps G12V/C118S): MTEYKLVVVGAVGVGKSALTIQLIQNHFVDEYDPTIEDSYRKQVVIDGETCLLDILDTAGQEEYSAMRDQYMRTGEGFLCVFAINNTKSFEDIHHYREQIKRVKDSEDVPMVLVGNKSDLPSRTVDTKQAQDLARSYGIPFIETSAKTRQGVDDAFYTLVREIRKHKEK
Text: as §1, §2, §3, §4, §5, §6, §7, §8, §9

KRAS (G13D)::SOS1 = KRAS (G13D)::SOS1 (Homo sapiens (Human), UniProt P01116, C118S/G13D); experiment: KRAS::SOS1 AlphaScreen binding assay, KRAS G13D
Sequence of KRAS (G13D)::SOS1 (P01116 other isoform, or with tags, fused parts or gaps G13D/C118S): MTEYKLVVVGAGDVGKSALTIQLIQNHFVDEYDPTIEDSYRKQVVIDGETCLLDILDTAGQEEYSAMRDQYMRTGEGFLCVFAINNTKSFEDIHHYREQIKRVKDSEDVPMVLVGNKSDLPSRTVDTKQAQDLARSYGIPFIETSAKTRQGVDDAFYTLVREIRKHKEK
Text: as §1, §2, §3, §4, §5, §6, §7, §8, §9

A375 cells = experiment: A375 CTG proliferation assay (120 h) (melanoma, wt, B-Raf mutant, negative control); type: cell-based; conditions: Homo sapiens, A-375, CTG 120 h
Method: A375 CTG Proliferation Assay (120 h) (Melanoma, Wt, B-Raf Mutant, Negative Control)
A375 cells (ATCC CRL-1619) are dispensed into 384-well plates, flat and clear bottom (Greiner, PNr. 781091) at a density of 300 cells per well in 60 μL DMEM (Sigma 06429)+10% Fetal Calf Serum (HyClone, PNr.: SH30084.03) and incubated at 37° C. in a CO2 incubator overnight. The next day, compounds (10 mM stock in DMSO) are added at logarithmic dose series using the HP Digital Dispenser D300 (Tecan), including DMSO controls. Plates are incubated for 120 h, and cell viability is measured using CellTiter-Glo luminescent cell viability reagent (Promega product code G7570). Viability (stated as percent of control) is defined as relative luminescence units RLU of each well divided by the RLU of cells in DMSO controls. IC50 values are determined from viability measurements by non-linear regression using a four-parameter model.

Row | IC50 (GP2D cells) [nM] | IC50 (KRAS (WT)::SOS1) [nM] | IC50 (KRAS (G12V)::SOS1) [nM] | IC50 (KRAS (G13D)::SOS1) [nM] | IC50 (A375 cells) [nM] | SMILES
1 | 1 | 4 | – | – | – | C[C@H](Oc1cc(N2CCNC3(CC3)C2)nc(-c2onc3c2CCC[C@@]32CCCc3sc(N)c(C#N)c32)n1)[C@@H]1CCCN1C [I-5]
2 | 6 | – | – | – | – | C[C@H](Oc1cc(N2C[C@H](C)NC3(CC3)C2)nc(-c2onc3c2CCC[C@@]32CCCc3sc(N)c(C#N)c32)n1)[C@@H]1CCCN1C [I-8]
3 | 6 | 20 | 54 | 173 | – | C[C@H](Oc1cc(N2CC[C@H](N(C)C)C2)nc(-c2noc3c2CCC[C@@]32CCCc3sc(N)c(C#N)c32)n1)[C@@H]1CCCN1C [II-49]
4 | 3 | – | – | – | – | C[C@H](Oc1cc(N2CCNC[C@]23CCOC3)nc(-c2noc3c2CCC[C@@]32CCCc3sc(N)c(C#N)c32)n1)[C@@H]1CCCN1C [II-50]
5 | 29 | 5 | – | – | – | C[C@H](Oc1cc(-n2cc3c(n2)CCNC3)nc(-c2noc3c2CCC[C@@]32CCCc3sc(N)c(C#N)c32)n1)[C@@H]1CCCN1C [II-53]
6 | 1 | 3 | 9 | 33 | – | C[C@H](Oc1cc(N2CCNC3(CC3)C2)nc(-c2noc3c2CCC[C@@]32CCCc3sc(N)c(C#N)c32)n1)[C@@H]1CCCN1C [II-54]
7 | 46 | 10 | 11 | 47 | – | C[C@H](Oc1cc(N2CCN(C)CC2)nc(-c2noc3c2CCC[C@@]32CCCc3sc(N)c(C#N)c32)n1)[C@@H]1CCCN1C [II-55]
8 | 13 | – | – | – | – | C[C@H](Oc1cc(N2C[C@H](C)N[C@@H](C)C2)nc(-c2noc3c2CCC[C@@]32CCCc3sc(N)c(C#N)c32)n1)[C@@H]1CCCN1C [II-56]
9 | 164 | – | – | – | – | C[C@H](Oc1cc(N2CCC[C@H](O)C2)nc(-c2noc3c2CCC[C@@]32CCCc3sc(N)c(C#N)c32)n1)[C@@H]1CCCN1C [II-57]
10 | 585 | 3 | – | – | – | C[C@H](Oc1cc(-n2ccnc2)nc(-c2noc3c2CCC[C@@]32CCCc3sc(N)c(C#N)c32)n1)[C@@H]1CCCN1C [II-69]
11 | – | – | – | 19 | – | C[C@H](Oc1cc(-n2cncn2)nc(-c2noc3c2CCC[C@@]32CCCc3sc(N)c(C#N)c32)n1)[C@@H]1CCCN1C [II-70]
12 | – | – | – | 9 | – | C[C@H](Oc1cc(N2CCCC3(COC3)C2)nc(-c2noc3c2CCC[C@@]32CCCc3sc(N)c(C#N)c32)n1)[C@@H]1CCCN1C [II-72]
13 | 111 | – | – | – | 2540 | C[C@H](Oc1cc(N2CCN(C)C2=O)nc(-c2noc3c2CCC[C@@]32CCCc3sc(N)c(C#N)c32)n1)[C@@H]1CCCN1C [II-75]
14 | – | – | – | 41 | – | C[C@H](Oc1cc(C2CCOCC2)nc(-c2noc3c2CCC[C@@]32CCCc3sc(N)c(C#N)c32)n1)[C@@H]1CCCN1C [II-76]
15 | – | 7 | 3 | – | – | C[C@H](Oc1cc(-c2ccncc2)nc(-c2noc3c2CCC[C@@]32CCCc3sc(N)c(C#N)c32)n1)[C@@H]1CCCN1C [II-78]
16 | – | 36 | 9 | – | – | C[C@H](Oc1cc(-c2cncnc2)nc(-c2noc3c2CCC[C@@]32CCCc3sc(N)c(C#N)c32)n1)[C@@H]1CCCN1C [II-82]
17 | – | 5 | 2 | – | – | C[C@H](Oc1cc(-c2ccccn2)nc(-c2noc3c2CCC[C@@]32CCCc3sc(N)c(C#N)c32)n1)[C@@H]1CCCN1C [II-85]
18 | 824 | 5 | – | – | – | C[C@H](Oc1cc(-c2cnn(C)n2)nc(-c2noc3c2CCC[C@@]32CCCc3sc(N)c(C#N)c32)n1)[C@@H]1CCCN1C [II-86]
19 | – | 33 | 8 | – | – | C[C@H](Oc1cc(N2CCc3cccnc32)nc(-c2noc3c2CCC[C@@]32CCCc3sc(N)c(C#N)c32)n1)[C@@H]1CCCN1C [II-90]
20 | 809 | 5 | 2 | – | – | C[C@H](Oc1cc(-c2ccn(C)n2)nc(-c2noc3c2CCC[C@@]32CCCc3sc(N)c(C#N)c32)n1)[C@@H]1CCCN1C [II-96]
21 | – | 8 | 2 | – | – | C[C@H](Oc1cc(-c2ccc(N)nc2)nc(-c2noc3c2CCC[C@@]32CCCc3sc(N)c(C#N)c32)n1)[C@@H]1CCCN1C [II-101]
22 | 510 | 4 | – | – | – | C[C@H](Oc1cc(-c2ccn3ncnc3c2)nc(-c2noc3c2CCC[C@@]32CCCc3sc(N)c(C#N)c32)n1)[C@@H]1CCCN1C [II-104]
23 | 463 | 4 | 2 | – | – | C[C@H](Oc1cc(-n2cncc3ccnc2-3)nc(-c2noc3c2CCC[C@@]32CCCc3sc(N)c(C#N)c32)n1)[C@@H]1CCCN1C [II-105]
24 | – | 7 | 3 | – | – | C[C@H](Oc1cc(-n2ccc(Br)n2)nc(-c2noc3c2CCC[C@@]32CCCc3sc(N)c(C#N)c32)n1)[C@@H]1CCCN1C [II-110]
25 | 443 | 4 | – | – | – | C[C@H](Oc1cc(-c2cnsc2)nc(-c2noc3c2CCC[C@@]32CCCc3sc(N)c(C#N)c32)n1)[C@@H]1CCCN1C [II-111]
26 | 248 | – | – | – | – | C[C@H](O)Cn1ccc(-c2cc(O[C@@H](C)[C@@H]3CCCN3C)nc(-c3noc4c3CCC[C@@]43CCCc4sc(N)c(C#N)c43)n2)n1 [II-112]
27 | – | – | – | 17 | – | C[C@H](Oc1cc(-n2ccncc2=O)nc(-c2noc3c2CCC[C@@]32CCCc3sc(N)c(C#N)c32)n1)[C@@H]1CCCN1C [II-116]
28 | 276 | – | – | – | – | C[C@H](Oc1cc(-c2ccn(C[C@@H](C)O)n2)nc(-c2noc3c2CCC[C@@]32CCCc3sc(N)c(C#N)c32)n1)[C@@H]1CCCN1C [II-117]
29 | – | 6 | 2 | – | – | C[C@H](Oc1cc(-n2ccc(-c3ccccn3)n2)nc(-c2noc3c2CCC[C@@]32CCCc3sc(N)c(C#N)c32)n1)[C@@H]1CCCN1C [II-119]
30 | – | – | 5 | – | – | C[C@H](Oc1cc(-n2ccnc2)nc(-c2noc3c2CCC[C@@]32CCCc3sc(N)c(C#N)c32)n1)[C@@H]1C[C@@H](F)CN1C [II-120]

From patent US20240174690A1, “ANNULATED 2-AMINO-3-CYANO THIOPHENES AND DERIVATIVES FOR THE TREATMENT OF CANCER” (BOEHRINGER INGELHEIM INTERNATIONAL GMBH, priority 2021, published 2024)
